# According to patent US20240148709A1, “METHODS OF TREATING EYE PAIN AND EYE DISORDERS” (Aisa Pharma, Inc., priority 2022, published 2024):
# Where “and” joins values, the source holds several entries; their conditions need not be identical. Equal entries are not always repeated.
# Test system: participants with SSc-RP
# Assay: Scleroderma Health Assessment Questionnaire (SHAQ), Phase 2a study Part A
# Format: in vivo, human
# Procedure: Part A—double-blind, placebo-controlled, parallel-group, dose selection, will assess the safety and efficacy of two doses of cilnidipine (10 mg and 20 mg), alone and in combination with tadalafil. A total of 36 participants will be randomized to one of six prespecified treatment arms. Refer to FIG. 1 for treatment arms in Part A of the study. Dosing last for 12 (±2) days in which participants will self-administer daily doses of assigned treatment in the morning. Each participant will take one capsule and one tablet to blind the active therapy being received.
# The standard, validated, patient reported outcome measures tool for SSc patients, the SHAQ, will be collected at the time points specified in the study schedules (FIG. 2 and FIGS. 3A and 3B) to assess the participant's quality of life. The SHAQ includes a Raynaud's VAS that will also be reported separately.
# Results: Patients in the study were administered the Scleroderma Health Assessment Questionnaire (SHAQ) at the time of study entry and during clinic visits following the treatment period. The study is a two-part, parallel arm design, prospective, double-blind, randomized study conducted in Australia (Flinders Medical Center). 27 patients were randomized into the first phase of the study, following which a DSMB meeting was held, which reviewed data on the primary study endpoint and key Raynaud's secondary endpoints. Data on the SHAQ was not available for the DSMB to review. The mITT population, in which any data was available post treatment was 24 patients was the analysis population for this first part of the study. The second part (i.e., part B) of the study will randomize 36 patients in a double blind, randomized, prospective, placebo controlled, crossover study. In the first part (i.e., Part A) of the study for which data is presented, patients were randomized into 6 groups, cilnidipine at two doses (10 and 20 mg) alone and in combination with tadalafil 5 mg, tadalafil 5 mg alone, and placebo. […] The DSMB recommended that the study proceed into its double blind prospective cross overpowered second phase and compare cilnidipine 20 mg alone to placebo.
# [1] = cilnidipine 20 mg arms (alone or + tadalafil 5 mg)
structure (smiles),measurement,setting,value
"COCCOC(=O)C1=C(C)NC(C)=C(C(=O)OC/C=C/c2ccccc2)C1c1cccc([N+](=O)[O-])c1 (stereo not shown) [Cilnidipine, cilnidipine]","SHAQ Visual Analog Scale-Breathing Problems, Change from Baseline, Q3",[1],0.300
same,"SHAQ Visual Analog Scale-Breathing Problems, In Clinic Visit (Day 12), Max",[1],0.50
same,"SHAQ Visual Analog Scale-Breathing Problems, In Clinic Visit (Day 12), Mean (SD)",[1],0.300 (0.2646)
same,"SHAQ Visual Analog Scale-Breathing Problems, In Clinic Visit (Day 12), Median",[1],0.400
same,"SHAQ Visual Analog Scale-Breathing Problems, In Clinic Visit (Day 12), Min",[1],0.00
same,"SHAQ Visual Analog Scale-Breathing Problems, In Clinic Visit (Day 12), Q1",[1],0.000
same,"SHAQ Visual Analog Scale-Breathing Problems, In Clinic Visit (Day 12), Q3",[1],0.500
same,"SHAQ Visual Analog Scale-Breathing Problems, Percent Change from Baseline, Max",[1],150.0%
same,"SHAQ Visual Analog Scale-Breathing Problems, Percent Change from Baseline, Mean (SD)",[1],−5.56 (135.742) %
same,"SHAQ Visual Analog Scale-Breathing Problems, Percent Change from Baseline, Median",[1],−66.67%
same,"SHAQ Visual Analog Scale-Breathing Problems, Percent Change from Baseline, Min",[1],−100.0%
same,"SHAQ Visual Analog Scale-Breathing Problems, Percent Change from Baseline, Q1",[1],−100.00%
same,"SHAQ Visual Analog Scale-Breathing Problems, Percent Change from Baseline, Q3",[1],150.00%
same,"SHAQ Visual Analog Scale-Intestinal Problems, Change from Baseline, Max",[1],0.60
same,"SHAQ Visual Analog Scale-Intestinal Problems, Change from Baseline, Mean (SD)",[1],0.300 (0.3000)
same,"SHAQ Visual Analog Scale-Intestinal Problems, Change from Baseline, Median",[1],0.300
same,"SHAQ Visual Analog Scale-Intestinal Problems, Change from Baseline, Min",[1],0.00
same,"SHAQ Visual Analog Scale-Intestinal Problems, Change from Baseline, Q1",[1],0.000
same,"SHAQ Visual Analog Scale-Intestinal Problems, Change from Baseline, Q3",[1],0.600
same,"SHAQ Visual Analog Scale-Intestinal Problems, In Clinic Visit (Day 12), Max",[1],2.10
same,"SHAQ Visual Analog Scale-Intestinal Problems, In Clinic Visit (Day 12), Mean (SD)",[1],1.133 (1.0599)
same,"SHAQ Visual Analog Scale-Intestinal Problems, In Clinic Visit (Day 12), Median",[1],1.300
same,"SHAQ Visual Analog Scale-Intestinal Problems, In Clinic Visit (Day 12), Min",[1],0.00
same,"SHAQ Visual Analog Scale-Intestinal Problems, In Clinic Visit (Day 12), Q1",[1],0.000
same,"SHAQ Visual Analog Scale-Intestinal Problems, In Clinic Visit (Day 12), Q3",[1],2.100
same,"SHAQ Visual Analog Scale-Intestinal Problems, Percent Change from Baseline, Max",[1],40.0%
same,"SHAQ Visual Analog Scale-Intestinal Problems, Percent Change from Baseline, Mean (SD)",[1],35.00 (7.071) %
same,"SHAQ Visual Analog Scale-Intestinal Problems, Percent Change from Baseline, Median",[1],35.00%
same,"SHAQ Visual Analog Scale-Intestinal Problems, Percent Change from Baseline, Min",[1],30.0%
same,"SHAQ Visual Analog Scale-Intestinal Problems, Percent Change from Baseline, Q1",[1],30.00%
same,"SHAQ Visual Analog Scale-Intestinal Problems, Percent Change from Baseline, Q3",[1],40.00%
same,"SHAQ Visual Analog Scale-Pain, Change from Baseline, Max",[1],−0.50
same,"SHAQ Visual Analog Scale-Pain, Change from Baseline, Mean (SD)",[1],−1.100 (0.7937) and −1.1 (0.79)
same,"SHAQ Visual Analog Scale-Pain, Change from Baseline, Median",[1],−0.800
same,"SHAQ Visual Analog Scale-Pain, Change from Baseline, Min",[1],−2.00
same,"SHAQ Visual Analog Scale-Pain, Change from Baseline, Q1",[1],−2.000
same,"SHAQ Visual Analog Scale-Pain, Change from Baseline, Q3",[1],−0.500
same,"SHAQ Visual Analog Scale-Pain, In Clinic Visit (Day 12), Max",[1],2.10
same,"SHAQ Visual Analog Scale-Pain, In Clinic Visit (Day 12), Mean (SD)",[1],1.067 (0.9074)
same,"SHAQ Visual Analog Scale-Pain, In Clinic Visit (Day 12), Median",[1],0.700
same,"SHAQ Visual Analog Scale-Pain, In Clinic Visit (Day 12), Min",[1],0.40
same,"SHAQ Visual Analog Scale-Pain, In Clinic Visit (Day 12), Q1",[1],0.400
same,"SHAQ Visual Analog Scale-Pain, In Clinic Visit (Day 12), Q3",[1],2.100
same,"SHAQ Visual Analog Scale-Pain, Percent Change from Baseline, Max",[1],−48.8%
same,"SHAQ Visual Analog Scale-Pain, Percent Change from Baseline, Mean (SD)",[1],−52.56 (3.454) %
same,"SHAQ Visual Analog Scale-Pain, Percent Change from Baseline, Median",[1],−53.33%
same,"SHAQ Visual Analog Scale-Pain, Percent Change from Baseline, Min",[1],−55.6%
same,"SHAQ Visual Analog Scale-Pain, Percent Change from Baseline, Q1",[1],−55.56%
same,"SHAQ Visual Analog Scale-Pain, Percent Change from Baseline, Q3",[1],−48.78%
same,"SHAQ Visual Analog Scale-Raynaud's, Change from Baseline, Max",[1],−0.30
same,"SHAQ Visual Analog Scale-Raynaud's, Change from Baseline, Median",[1],−1.100
same,"SHAQ Visual Analog Scale-Raynaud's, Change from Baseline, Min",[1],−2.40
same,"SHAQ Visual Analog Scale-Raynaud's, Change from Baseline, Q1",[1],−2.400
same,"SHAQ Visual Analog Scale-Raynaud's, Change from Baseline, Q3",[1],−0.300
same,"SHAQ Visual Analog Scale-Raynaud's, In Clinic Visit (Day 12), Max",[1],1.40
same,"SHAQ Visual Analog Scale-Raynaud's, In Clinic Visit (Day 12), Mean (SD)",[1],1.033 (0.4041)
same,"SHAQ Visual Analog Scale-Raynaud's, In Clinic Visit (Day 12), Median",[1],1.100
same,"SHAQ Visual Analog Scale-Raynaud's, In Clinic Visit (Day 12), Min",[1],0.60
same,"SHAQ Visual Analog Scale-Raynaud's, In Clinic Visit (Day 12), Q1",[1],0.600
same,"SHAQ Visual Analog Scale-Raynaud's, In Clinic Visit (Day 12), Q3",[1],1.400
same,"SHAQ Visual Analog Scale-Raynaud's, Percent Change from Baseline, Max",[1],−33.3%
same,"SHAQ Visual Analog Scale-Raynaud's, Percent Change from Baseline, Mean (SD)",[1],−48.63 (18.070) %
same,"SHAQ Visual Analog Scale-Raynaud's, Percent Change from Baseline, Median",[1],−44.00%
same,"SHAQ Visual Analog Scale-Raynaud's, Percent Change from Baseline, Min",[1],−68.6%
same,"SHAQ Visual Analog Scale-Raynaud's, Percent Change from Baseline, Q1",[1],−68.57%
same,"SHAQ Visual Analog Scale-Raynaud's, Percent Change from Baseline, Q3",[1],−33.33%
same,"SHAQ alternative disability index, Change from Baseline, Max",[1],0.00
same,"SHAQ alternative disability index, Change from Baseline, Mean (SD)",[1],−0.083 (0.0722)
same,"SHAQ alternative disability index, Change from Baseline, Median",[1],−0.125
same,"SHAQ alternative disability index, Change from Baseline, Min",[1],−0.13
same,"SHAQ alternative disability index, Change from Baseline, Q1",[1],−0.125
same,"SHAQ alternative disability index, Change from Baseline, Q3",[1],0.000
same,"SHAQ alternative disability index, In Clinic Visit (Day 12), Max",[1],0.25
same,"SHAQ alternative disability index, In Clinic Visit (Day 12), Mean (SD)",[1],0.125 (0.1250)
same,"SHAQ alternative disability index, In Clinic Visit (Day 12), Median",[1],0.125
same,"SHAQ alternative disability index, In Clinic Visit (Day 12), Min",[1],0.00
same,"SHAQ alternative disability index, In Clinic Visit (Day 12), Q1",[1],0.000
same,"SHAQ alternative disability index, In Clinic Visit (Day 12), Q3",[1],0.250
same,"SHAQ alternative disability index, Percent Change from Baseline, Max",[1],−33.3%
same,"SHAQ alternative disability index, Percent Change from Baseline, Mean (SD)",[1],−41.67 (11.785) %
same,"SHAQ alternative disability index, Percent Change from Baseline, Median",[1],−41.67%
same,"SHAQ alternative disability index, Percent Change from Baseline, Min",[1],−50.0%
same,"SHAQ alternative disability index, Percent Change from Baseline, Q1",[1],−50.00%
same,"SHAQ alternative disability index, Percent Change from Baseline, Q3",[1],−33.33%
same,mean decrease in patient reported disease severity on the SHAQ,pooled cilnidipine 10 mg or 20 mg (n=7),60%
